Measurements taken from PMC4237307 (Chembiochem : a European journal of chemical biology, 2014).

Experiments:
liver stage P. berghei = experiment: Time course of liver stage parasite inhibition; conditions: inhibitor added to infected liver cells
mTOR = conditions: read-out: IC50 mTOR; cited from earlier work
[1] = test system: liver stage P. berghei ANKA; type: cell-based
[2] = test system: blood stage P. falciparum Dd2; experiment: Blood stage malaria dose-response assay; type: cell-based; conditions: read-out: Blood stage malaria IC50
[3] = test system: liver and blood stage P. berghei; conditions: cited from earlier work
[4] = mouse, in vivo
[5] = test system: P. berghei-luciferase sporozoites; experiment: Mouse liver stage malaria model, parasite load in livers by in vivo imaging; set-up: species or system C57BL/6 mice
PfPK5 = PfPK5 (Plasmodium falciparum, UniProt P61075); type: binding; conditions: for Percent binding to PfPK5: 10 μM compound
Chain of PfPK5 (P61075 whole entry): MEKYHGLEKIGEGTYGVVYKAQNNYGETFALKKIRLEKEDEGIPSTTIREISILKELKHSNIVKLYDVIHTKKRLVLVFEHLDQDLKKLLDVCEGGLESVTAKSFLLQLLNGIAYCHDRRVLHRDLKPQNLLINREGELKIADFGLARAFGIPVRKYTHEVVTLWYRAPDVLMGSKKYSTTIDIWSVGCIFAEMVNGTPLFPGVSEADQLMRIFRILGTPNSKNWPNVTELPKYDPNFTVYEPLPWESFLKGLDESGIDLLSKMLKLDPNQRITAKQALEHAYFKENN

P. berghei = P. berghei parasitemia in mice after prophylactic treatment; type: in vivo; conditions: single oral dose 100 mg/kg b.w. before infection

For `FC(F)c1nc2ccccc2n1-c1nc(N2CCOCC2)nc(N2CCOCC2)n1` [ZSTK474], the “Parasite inhibition with 12-hour treatment” value (liver stage P. berghei) was “inhibit parasites with only a 12-hour treatment”.

For `Nc1ccc(-c2ccc3ncc4ccc(=O)n(-c5cccc(C(F)(F)F)c5)c4c3c2)cn1` [Torin2], the IC50 (mTOR) is given as […], the IC50 ([1]; read-out: Liver stage malaria IC50, liver stage) is given as 40 nM and the IC50 [2] is given as 1 nM. The “Activity in mouse animal model” value [3] was “exhibits activity against liver and blood stage P. berghei”.

With `CC(C)(C)c1cnc(CSc2cnc(NC(=O)C3CCNCC3)s2)o1` [SNS-032] the Toxicity to mice [4] was “relatively limited toxicity to mice” and the “Parasite load in mouse livers vs vehicle” value ([5]; single oral dose 75 mg/kg b.w. before infection) was “reduce parasite load in mouse livers”.

With `CCC(=O)N1CCN(c2ccc(-n3c(=O)ccc4cnc5ccc(-c6cnc7ccccc7c6)cc5c43)cc2C(F)(F)F)CC1` [Torin1] the “Parasite inhibition with 12-hour treatment” value (liver stage P. berghei) was “inhibit parasites with only a 12-hour treatment”.

With `Cc1ccc([N+](=O)[O-])cc1S(=O)(=O)N(C)/N=C/c1cnc2ccc(Br)cn12` [PIK-75] the “Percent binding to PfPK5” value (PfPK5) was > 50% and the Kd (PfPK5; read-out: Kd for PfPK5, competition binding, absence of ATP) was < 10 µM.

For `CN1CC[C@H](c2c(O)cc(O)c3c(=O)cc(-c4ccccc4Cl)oc23)[C@H](O)C1` [Flavopiridol], the “Percent binding to PfPK5” value (PfPK5) was > 50%.

In the case of `Cc1nc(N)sc1-c1ccnc(Nc2ccc(N3CCOCC3)cc2)n1` [CYC-116], the “Stage selectivity (blood stage IC50 vs liver stage IC50)” value [1] is reported as “inhibited liver stage P. berghei significantly more potently than blood stage P. falciparum”, the “P. berghei parasitemia vs vehicle” value (P. berghei) is reported as “reduction in P. berghei parasitemia” and the “Parasite load in mouse livers vs vehicle” value ([5]; single oral dose 100 mg/kg b.w. before infection) is reported as “significantly reduced parasite load in mouse livers”.

With `CNC(=O)c1cc(Oc2ccc(NC(=O)Nc3ccc(Cl)c(C(F)(F)F)c3)cc2)ccn1` [Nexavar] the “Inhibition of parasite load in liver cells” value ([1]; low micromolar concentration) was “completely inhibited parasite load in liver cells”.
